Patent US20020026053A1, “Novel 3-(substituted) -2- indolinones compounds and use thereof as inhibitors of protein kinase activity” (priority 1997, published 2002)

Test system: FLK-1 receptor
Experiment: FLK-1 Assay (cellular/catalytic ELISA, VEGF-stimulated phosphotyrosine)
Format: cell-based
Set-up: concentration or dose not given beside the values
Details: protocol P.110
Summary of the method: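 NIH3T3 C7#3 cells engineered to express Flk-1 were serum-starved overnight (0.1% FBS), then exposed to compound for 2 h at 37 °C (final dilution 1:200, 0.5% DMSO) before VEGF stimulation. Lysates captured on anti-FLK-1 antiserum plates; phosphotyrosine detected by UB40 antibody/POD-ABTS ELISA versus untreated controls.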

Row | Compound | Flk Kinase % Inhibition (P.110) [%]
1 | CCCOc1ccc(C=C2C(=O)Nc3ccc(S(=O)(=O)Nc4ccc(C(F)(F)F)cc4)cc32)cc1 [10738/E11] | 10.2
2 | O=C1Nc2ccc(S(=O)(=O)Nc3ccc(C(F)(F)F)cc3)cc2C1=Cc1cc(O)cc(O)c1 [10738/E07] | 43.4
3 | CNS(=O)(=O)c1ccc2c(c1)C(=Cc1cccc(Oc3ccc(Cl)c(Cl)c3)c1)C(=O)N2 [10738/D03] | 13.6
4 | CCCOc1ccc(C=C2C(=O)Nc3ccc(I)cc32)cc1 [10738/B11] | 8.8
5 | COc1ccc(C=C2C(=O)Nc3ccc(CCCl)cc32)cc1O [10738/G04] | −57.2
6 | COc1ccccc1C=C1C(=O)Nc2ccc(CCCl)cc21 [10738/G09] | 4.1
7 | O=C1Nc2ccc(CCCl)cc2C1=Cc1cc(O)cc(O)c1 [10738/G07] | −19.3
8 | COc1ccccc1C=C1C(=O)Nc2ccc(I)cc21 [10738/B09] | −6.2
9 | O=C1Nc2ccc(I)cc2C1=Cc1cccc(Oc2ccc(Cl)c(Cl)c2)c1 [10738/B03] | −1.2
10 | CCCOc1ccc(C=C2C(=O)Nc3ccc(Br)c(C)c32)cc1 [10738/C11] | 8.4
11 | O=C1Nc2ccc(S(=O)(=O)N3CCOCC3)cc2C1=Cc1cc(O)cc(O)c1 [10738/F07] | 6.4
12 | CC(C)c1ccc(C=C2C(=O)Nc3ccc(CCCl)cc32)cc1 [10738/G10] | −17.0
13 | Cc1c(Br)cc(Br)c2c1C(=Cc1cc(O)ccc1[N+](=O)[O-])C(=O)N2 [10738/H05] | −17.9
14 | Cc1ccc(Oc2cccc(C=C3C(=O)Nc4ccc(CCCl)cc43)c2)cc1 [10738/G02] | −10.5
15 | COc1ccc(C=C2C(=O)Nc3ccc(I)cc32)cc1O [10738/B04] | 55.0
16 | Cc1ccc(Oc2cccc(C=C3C(=O)Nc4c(Br)cc(Br)c(C)c43)c2)cc1 [10738/H02] | −14.6
17 | COc1ccc(C=C2C(=O)Nc3c(Br)cc(Br)cc32)cc1O [10738/A04] | −16.2
18 | CNS(=O)(=O)c1ccc2c(c1)C(=Cc1ccc(C(C)C)cc1)C(=O)N2 [10738/D10] | 15.4
19 | Cc1ccc(Oc2cccc(C=C3C(=O)Nc4ccc(I)cc43)c2)cc1 [10738/B02] | −8.5
20 | CC(C)c1ccc(C=C2C(=O)Nc3ccc(S(=O)(=O)Nc4ccc(C(F)(F)F)cc4)cc32)cc1 [10738/E10] | 5.1
21 | Cc1c(Br)ccc2c1C(=Cc1cc(O)ccc1[N+](=O)[O-])C(=O)N2 [10738/C05] | −4.4
22 | CC(C)c1ccc(C=C2C(=O)Nc3c(Br)cc(Br)cc32)cc1 [10738/A10] | −8.5
23 | O=C1Nc2ccc(CCCl)cc2C1=Cc1cccc(O)c1O [10738/G06] | −52.4
24 | CCCOc1ccc(C=C2C(=O)Nc3c(Br)cc(Br)cc32)cc1 [10738/A11] | −7.5
25 | Cc1c(Br)ccc2c1C(=Cc1ccc(C(C)C)cc1)C(=O)N2 [10738/C10] | −2.5

Row | Compound | Flk Kinase % Inhibition (P.110) [%]
26 | CNS(=O)(=O)c1ccc2c(c1)C(=Cc1cc(O)cc(O)c1)C(=O)N2 [10738/D07] | 10.3
27 | O=C1Nc2ccc(I)cc2C1=Cc1cc(O)ccc1[N+](=O)[O-] [10738/B05] | −13.1
28 | O=C1Nc2c(Br)cc(Br)cc2C1=Cc1cccc(O)c1O [10738/A06] | 77.3
29 | CNS(=O)(=O)c1ccc2c(c1)C(=Cc1ccc(OC)c(O)c1)C(=O)N2 [10738/D04] | −13.1
30 | O=C1Nc2ccc(S(=O)(=O)N3CCOCC3)cc2C1=Cc1cccc(Oc2ccc(Cl)c(Cl)c2)c1 [10738/F03] | 9.0
31 | O=C1Nc2ccc(CCCl)cc2C1=Cc1cccc(Oc2ccc(Cl)c(Cl)c2)c1 [10738/G03] | −4.1
32 | O=C1Nc2ccc(S(=O)(=O)Nc3ccc(C(F)(F)F)cc3)cc2C1=Cc1cccc(Oc2ccc(Cl)c(Cl)c2)c1 [10738/E03] | 7.8
33 | Cc1ccc(Oc2cccc(C=C3C(=O)Nc4ccc(Br)c(C)c43)c2)cc1 [10738/C02] | −0.1
34 | CNS(=O)(=O)c1ccc2c(c1)C(=Cc1ccc(Cl)c(Cl)c1)C(=O)N2 [10738/D08] | 11.9
35 | Cc1c(Br)ccc2c1C(=Cc1ccc(Cl)c(Cl)c1)C(=O)N2 [10738/C08] | −7.4
36 | O=C1Nc2ccc(S(=O)(=O)Nc3ccc(C(F)(F)F)cc3)cc2C1=Cc1cc(O)ccc1[N+](=O)[O-] [10738/E05] | −4.8
37 | CC(C)c1ccc(C=C2C(=O)Nc3ccc(I)cc32)cc1 [10738/B10] | 14.3
38 | CNS(=O)(=O)c1ccc2c(c1)C(=Cc1cccc(Oc3ccc(C)cc3)c1)C(=O)N2 [10738/D02] | 2.8
39 | O=C1Nc2ccc(CCCl)cc2C1=Cc1ccc(Cl)c(Cl)c1 [10738/G08] | −15.2
40 | O=C1Nc2ccc(CCCl)cc2C1=Cc1cc(O)ccc1[N+](=O)[O-] [10738/G05] | 4.0
41 | O=C1Nc2ccc(S(=O)(=O)Nc3ccc(C(F)(F)F)cc3)cc2C1=Cc1cccc(O)c1O [10738/E06] | 10.1
42 | CNS(=O)(=O)c1ccc2c(c1)C(=Cc1ccccc1OC)C(=O)N2 [10738/D09] | 9.4
43 | Cc1ccc(Oc2cccc(C=C3C(=O)Nc4c(Br)cc(Br)cc43)c2)cc1 [10738/A02] | −14.2
44 | COc1ccccc1C=C1C(=O)Nc2ccc(S(=O)(=O)N3CCOCC3)cc21 [10738/F09] | 1.7
45 | CCCOc1ccc(C=C2C(=O)Nc3ccc(CCCl)cc32)cc1 [10738/G11] | −8.1
46 | COc1ccccc1C=C1C(=O)Nc2ccc(Br)c(C)c21 [10738/C09] | 4.5
47 | Cc1ccc(Oc2cccc(C=C3C(=O)Nc4ccc(S(=O)(=O)N5CCOCC5)cc43)c2)cc1 [10738/F02] | 15.0
48 | O=C1Nc2c(Br)cc(Br)cc2C1=Cc1cc(O)cc(O)c1 [10738/A07] | −22.1
49 | O=C1Nc2ccc(S(=O)(=O)N3CCOCC3)cc2C1=Cc1cc(O)ccc1[N+](=O)[O-] [10738/F05] | 3.3
50 | CCCOc1ccc(C=C2C(=O)Nc3ccc(S(=O)(=O)N4CCOCC4)cc32)cc1 [10738/F11] | 15.8

Row | Compound | Flk Kinase % Inhibition (P.110) [%]
51 | O=C1Nc2ccc(S(=O)(=O)N3CCOCC3)cc2C1=Cc1cccc(O)c1O [10738/F06] | −12.6
52 | CNS(=O)(=O)c1ccc2c(c1)C(=Cc1cc(O)ccc1[N+](=O)[O-])C(=O)N2 [10738/D05] | −12.5
53 | Cc1c(Br)ccc2c1C(=Cc1cc(O)cc(O)c1)C(=O)N2 [10738/C07] | −7.4
54 | Cc1c(Br)cc(Br)c2c1C(=Cc1cccc(Oc3ccc(Cl)c(Cl)c3)c1)C(=O)N2 [10738/H03] | −6.2
55 | O=C1Nc2ccc(S(=O)(=O)Nc3ccc(C(F)(F)F)cc3)cc2C1=Cc1ccc(Cl)c(Cl)c1 [10738/E08] | 12.8
56 | COc1ccc(C=C2C(=O)Nc3ccc(Br)c(C)c32)cc1O [10738/C04] | 84.2
57 | COc1ccc(C=C2C(=O)Nc3c(Br)cc(Br)c(C)c32)cc1O [10738/H04] | −17.9
58 | COc1ccc(C=C2C(=O)Nc3ccc(S(=O)(=O)Nc4ccc(C(F)(F)F)cc4)cc32)cc1O [10738/E04] | −11.5
59 | Cc1c(Br)cc(Br)c2c1C(=Cc1cccc(O)c1O)C(=O)N2 [10738/H06] | −44.8
60 | CNS(=O)(=O)c1ccc2c(c1)C(=Cc1cccc(O)c1O)C(=O)N2 [10738/D06] | −26.7
61 | O=C1Nc2ccc(I)cc2C1=Cc1ccc(Cl)c(Cl)c1 [10738/B08] | −0.7
62 | O=C1Nc2ccc(I)cc2C1=Cc1cccc(O)c1O [10738/B06] | −44.1
63 | COc1ccc(C=C2C(=O)Nc3ccc(S(=O)(=O)N4CCOCC4)cc32)cc1O [10738/F04] | −32.3
64 | O=C1Nc2c(Br)cc(Br)cc2C1=Cc1ccc(Cl)c(Cl)c1 [10738/A08] | −9.3
65 | COc1ccccc1C=C1C(=O)Nc2c(Br)cc(Br)cc21 [10738/A09] | −9.8
66 | O=C1Nc2ccc(I)cc2C1=Cc1cc(O)cc(O)c1 [10738/B07] | −22.7
67 | O=C1Nc2ccc(S(=O)(=O)N3CCOCC3)cc2C1=Cc1ccc(Cl)c(Cl)c1 [10738/F08] | 16.8
68 | Cc1c(Br)ccc2c1C(=Cc1cccc(Oc3ccc(Cl)c(Cl)c3)c1)C(=O)N2 [10738/C03] | 28.0
69 | COc1ccccc1C=C1C(=O)Nc2ccc(S(=O)(=O)Nc3ccc(C(F)(F)F)cc3)cc21 [10738/E09] | 21.2
70 | Cc1ccc(Oc2cccc(C=C3C(=O)Nc4ccc(S(=O)(=O)Nc5ccc(C(F)(F)F)cc5)cc43)c2)cc1 [10738/E02] | 3.6
71 | O=C1Nc2c(Br)cc(Br)cc2C1=Cc1cccc(Oc2ccc(Cl)c(Cl)c2)c1 [10738/A03] | 12.8
72 | Cc1c(Br)ccc2c1C(=Cc1cccc(O)c1O)C(=O)N2 [10738/C06] | −68.1
73 | CC(C)c1ccc(C=C2C(=O)Nc3ccc(S(=O)(=O)N4CCOCC4)cc32)cc1 [10738/F10] | 9.5
74 | O=C1Nc2c(Br)cc(Br)cc2C1=Cc1cc(O)ccc1[N+](=O)[O-] [10738/A05] | −24.5
75 | CCCOc1ccc(C=C2C(=O)Nc3ccc(S(=O)(=O)NC)cc32)cc1 [10738/D11] | 10.4
